This is an account of results in patent publication US20260355318A1, “MOLECULAR MACHINES FOR TREATMENT OF CANCER, FUNGAL INFECTIONS, OR BACTERIAL INFECTIONS” (priority 2022, published 2026).

The subject of data set [1] is C. albicans mitochondria and plasma membrane. Description: Colocalization analysis by confocal microscopy. The format is cell-based, Candida albicans. The conditions noted are these: no light. The procedure: Colocalization analysis of MMs was performed as previously described (Benhamou et al., 2018; Vida and Emr, 1995) with modifications. A single isolated colony was picked from 24-h SDAE plates, diluted in liquid YPD, and grown at 30 ° C for 24 h. Cells were then re-diluted in fresh YPD medium and grown statically in Ibidi u-dishes (Ibidi GmbH, Munich, Germany) for 24 h at 30 ° C The cells were washed, and then YPD medium containing 8 μM MM 1 and 10 nM MitoTracker™ Green (Thermo Fisher Scientific, MA, USA) was added. After a 30-min dark incubation at 30 ° C, the solution was replaced with fresh medium containing 40 nM FM™ 4-64 (Thermo Fisher Scientific, MA, USA). Cells were immediately imaged in a Nikon Al—RSI confocal system mounted on a Nikon Ti-E widefield fluorescence microscope (Nikon Corporation, NY, USA). Cells were imaged directly on the Ibidi imaging dish using a 60×water immersion objective (numerical aperture of 1.27, 0.17 mm working distance). Colocalization was calculated in the Fiji version of ImageJ using the Colocalization Threshold tool and the Coloc-2 plugin.

The nature of data set [2]: Photodegradation of MMs by 1H NMR. The data set is classed as physicochemical. The following applies: 5 min, 146 mW cm^−2 405 nm, DMSO-d6.
Protocol: Aromatic region of ^1H NMR (600 MHz) spectra of MM 1 (300 mM in DMSO-d6) before and after irradiation for 5 min with 146 mW cm^−2 of 405 nm light.
For data set [3], the system named is persister cells of A. baumannii. Description: Persister eradication, A. baumannii. The following applies: 1×MIC, 405 nm. The format is cell-based, Acinetobacter baumannii.
In data set [4] the test system is E. coli. Kind of data set: Protein carbonyl levels, E. coli. The data set is classed as cell-based, Escherichia coli. The following applies: 1×MIC MM 1.
Data set [5] has as its system E. coli. Description: Antibacterial activity of pre-irradiated MM 1. The data set is classed as cell-based, Escherichia coli. The conditions noted are these: pre-irradiation 25 min. As to the method:
Influence of MM pre-irradiation on the inactivation of E. coli. Top: (1) To test the influence of pre-irradiating MMs on their antibacterial effects, MM 1 was added to a Petri dish containing PBS (final concentration of 8 μM) and irradiated for 25 min at 146 mW cm^−2 with 405 nm light. Cells were then added to an OD of ≈0.02, incubated in the dark for 30 min and then irradiated for up to 10 min at 146 mW cm^−2 with 405 nm light; (2) Independently, MM 1 was added to a Petri dish containing PBS (final concentration of […]), cells were then added to an OD600 of ≈0.02, incubated in the dark for 30 min and then irradiated for up to 10 min at 146 mW cm^−2 with 405 nm light. Bottom: Time-dependent reduction in colony-forming units (expressed as the logarithm of the ratio between the cell number at every time point and the cell number at time zero) of cells treated with pre-irradiated MM 1 or non-irradiated MM 1.

The subject of another data set is T. rubrum. Description: Ex vivo onychomycosis porcine nail model. Further details: species or system Trichophyton rubrum on porcine nails; key to Summary of significance, fungal load: * p<0.05; ** p<0.01; *** p<0.001; **** p<0.0001; ns: non-significant. The conditions noted are these: for Mean rank diff. of fungal load: T. rubrum nails. As to the method:
For microconidia preparation, T. rubrum was inoculated on potato dextrose agar containing 0.025% Sabouraud dextrose broth (SDB) and 1.0% penicillin-streptomycin. After a 10-day incubation at 28 ° C, the plates were flooded with PBS, which was then aspirated and filtered through a sterilized cotton gauze to recover microconidia (Ma et al., 2022).
An ex vivo onychomycosis model was established as previously described (Quatrin et al., 2020) with modifications. Pig hooves with exposed toenails were processed into ~1 cm^2-sized individual toenail samples with a band saw, washed with 70% ethyl alcohol and sterilized water, and inoculated with a microconidia suspension of T. rubrum (~10^7 conidia mL^−1) for 3 h. Samples were placed in a Petri dish containing moist sterilized paper and incubated at 28 ° C for 10 days. Fungal growth was confirmed by sample resuspension in PBS and plating on PDA containing 0.025% SDB and 1% penicillin-streptomycin. Infected samples were then treated with (1) 1% DMSO plus light, (2) monotherapy with MM 1 alone (0.77% in DMSO) plus light, (3) monotherapy with conventional antifungal (three drops (Quatrin et al., 2020) of Ciclopirox Topical Suspension USP, 0.77% “Lotion”, Leading Pharma, LLC, NY, USA, or Ciclopirox Topical Solution, 8% “Lacquer”, Perrigo New York Inc., NY, USA), or (4) combination therapy with MM 1 plus light and conventional antifungal. Each treatment group consisted of three samples. After 30 min, samples in the irradiated treatment groups were transferred to 24-well plates (Corning-Costar Corp., Corning, NY, USA) and irradiated with 405-nm light (87.6 J cm^−2). Treatment was repeated every 24 h for 5 days. Afterward, the samples were transferred to tubes containing PBS plus 1% penicillin-streptomycin, vortexed, and sonicated (Quatrin et al., 2020). Triplicate aliquots of this suspension were inoculated on PDA plates containing 1% penicillin-streptomycin. After a 10-day incubation at 28 ° C, CFU numbers were determined. Untreated samples served as positive controls.

`C[C@@H]1Cc2ccc3ccccc3c2/C1=C1\c2ccccc2Sc2cc(NCCN(C)C)ccc21` [MM 1, N^1N^1-dimethyl-N^2-(9-(2-methyl-2,3-dihydro-1H-cyclopenta[a]naphthalen-1-ylidene)-9H-thioxanthen-3-yl) ethane-1,2-diamine]: in data set [1], the “areal colocalization with FM 4-64” value turned out to be 5.2% and the “areal colocalization with MitoTracker Green” value stood at 52.5%. In data set [2], the photodegradation result is listed as “does not cause detectable photodegradation of MMs”. In addition, the “time to reduce persister cells to limit of detection” value in data set [3] is 3 min. For the same compound, the protein carbonyl levels entry with E. coli [4] is recorded as “not significantly changed”. In addition, the “antibacterial activity after pre-irradiation” value with E. coli [5] is reported as “does not lead to loss of MM antibacterial activity”. In the data set with T. rubrum (1% DMSO vs treatment), the “Summary of significance, fungal load” value was “** (** p<0.01)” and the “Mean rank diff. of fungal load” value is reported as 28.00. Moreover, in the data set with T. rubrum (CPX Lacquer vs treatment), the “Summary of significance, fungal load” value is on record as “ns” and the “Mean rank diff. of fungal load” value stood at 14.33. Besides, in the data set with T. rubrum (CPX Lotion vs treatment), the “Summary of significance, fungal load” value is on record as “ns” and the “Mean rank diff. of fungal load” value was found to be 14.67. Further, the log reduction at 7700 µg/mL in the data set on T. rubrum (Trichophyton rubrum, topical, T. rubrum, 0.77% (w/v) MM 1 + 405-nm light, vs DMSO controls, read-out: reduction of fungal burden in porcine nails) was roughly 2.
